Measurements as given in patent publication US8722015B2, “Compositions and methods for treatment of angiogenesis-associated ocular disorders” (The Schepens Eye Research Institute, Inc., priority 2010, dated 2014).

System: pathological retinas
Assay: Staining of pathological and healthy retinas with SH peptide, confocal images
Assay type: binding, rat
Description: FIG. 7 is a series of confocal images of pathological (row A) and healthy (row B) retinas stained with either SH peptide alone (left hand column), the SH peptide and IB4, which decorates endothelial cells and activated macrophages/microglia (middle column), or SH peptide, IB4 and DAPI (right hand column). Yellow indicates either endothelial cells or activated macrophages/microglia that are also stained with the SH peptide.
The following series of experiments are performed to assess if the unique peptide insert of the SH phage is sufficient for recognition of pathological retinal vessels. A peptide corresponding to the unique insert and the 4 flanking residues on the N and 2 residues on the C termini (GGACSTEALRHCG; SEQ ID NO: 3) is synthesized. To facilitate labeling of the peptide biotin is added on the N-terminus, thereby allowing for detection of the peptide with the fluorescently labeled avidin. The labeled SH peptide, along with the scrambled version is labeled and used to stain flat mounts of RA (experienced room air instead of the OIR protocol) or OIR retinas as was done in FIG. 4. The staining protocol is optimized to identify the suitable concentration of peptide, incubation and wash conditions. If the peptides used in these experiments include all of the necessary sequence information to selectively recognize the pathological retinal vessels, then the peptides work comparably to the phage, as shown in FIG. 4.
Peptides corresponding to those expressed on the surface of the SH phage, e.g., those with the amino acid sequence STEALRH (SEQ ID NO: 2), recognized pathological retinas much more effectively than healthy retinas.

STEALRH (Protein from peptide library) [SH peptide]
comparison with the entire SH phage (strength of the signal, absence of background) (FIG. 7): superior to the entire SH phage
staining of pathological versus healthy retinas (OIR versus healthy retinas, FIG. 7): stained pathological retinas much more robustly than healthy retinas
recognition of areas without overt pathology (pathological retina, in addition to tufts): recognized areas without overt pathology
